Patent US20220249441A1, “Homodimeric Tobramycin Adjuvant Repurposes Novobiocin as an Effective Antibacterial Agent Against Gram-Negative Bacteria” (priority 2019, published 2022)
≈ marks a conversion by molar mass, not a printed value.

Assays:
[1] = system: P. aeruginosa; test: Checkerboard assay (antibiotic + adjuvant combination MIC); format: cell-based, Pseudomonas aeruginosa; conditions: for MIC of Novobiocin + adjuvant (7.1 μM): PMBN or 1 at 7.1 μM
Procedure: (§1) Antimicrobial Susceptibility Assay. The in vitro antimicrobial activity of all compounds/antibiotics against a panel of bacteria was evaluated by microbroth dilution method in accordance with the Clinical and Laboratory Standards Institute (CLSI) guidelines (using ATCC strains as quality control strains) (54). Overnight grown bacterial cultures were diluted in saline to achieve a 0.5 McFarland turbidity, followed by 1:50 dilution in Mueller-Hinton broth (MHB) for inoculation to a final concentration of approximately 5×10^5 CFU/mL. […] The lowest concentration that prevented the visible growth of bacteria was defined as the MIC for each antimicrobial agent. The broth with or without bacterial cells was used as positive or negative control, respectively.
(§2) Checkerboard Assay. Combination studies with different antibiotics were performed in 96-well plates as previously described (19). Briefly, the antibiotic of interest was serially diluted in MHB along the abscissa while the adjuvant (tobramycin homodimer) was serially diluted in MHB along the ordinate. This creates a 10×7 matrices wherein each well consists of a combination of different antibiotic and adjuvant concentrations. Overnight grown bacterial cultures were diluted in saline to achieve a 0.5 McFarland turbidity, followed by 1:50 dilution in Mueller-Hinton broth (MHB) for inoculation to a final concentration of approximately 5×10^5 CFU/mL. […] MIC was recorded as wells with the lowest concentration of drugs with no bacterial growth. The fractional inhibitory concentration (FIC) for each antibiotic was calculated by dividing the MIC of the antibiotic in the presence of adjuvant by the MIC of the antibiotic alone. Similarly, the FIC of adjuvant was calculated by dividing the MIC of the adjuvant in the presence of antibiotic by the MIC of the adjuvant alone. FIC index is the sum of both FICs. FIC indices of ≤0.5 were deemed synergistic; >0.5-4, no interaction; and >4, antagonistic.

[2] = system: panel of Gram-positive and Gram-negative bacteria; test: Antimicrobial susceptibility assay against a panel of bacteria; format: cell-based; conditions: some isolates
Procedure: as §1

[3] = system: P. aeruginosa PAO1 and efflux deficient mutants, MDR/XDR isolates; test: microbe, parasite or virus in culture; format: cell-based, Pseudomonas aeruginosa
Procedure: Antimicrobial Susceptibility Assay. The in vitro antimicrobial activity of all compounds/antibiotics against a panel of bacteria was evaluated by microbroth dilution method in accordance with the Clinical and Laboratory Standards Institute (CLSI) guidelines (using ATCC strains as quality control strains) (54). […] The broth with or without bacterial cells was used as positive or negative control, respectively.

[4] = system: K. pneumoniae; test: Checkerboard assay (antibiotic + adjuvant combination MIC); format: cell-based, Klebsiella pneumoniae; conditions: KP 113254; PMBN or 1 at 7.1 μM
Procedure: as §1, §2

[5] = system: E. cloacae; test: as above; format: cell-based, Enterobacter cloacae; conditions: EC 118568; PMBN or 1 at 7.1 μM
Procedure: as §1, §2

[6] = system: E. coli; test: as above; format: cell-based, Escherichia coli; conditions: PMBN or 1 at 7.1 μM
Procedure: as §1, §2

[7] = system: A. baumannii; test: as above; format: cell-based, Acinetobacter baumannii
Procedure: as §1, §2

[8] = P. aeruginosa PAO1, compound at 8 μM
[9] = PA 262-101856, compound at 8 μM
[10] = PA 264-104354, compound at 8 μM
[11] = PA O200 (efflux-deficient), compound at 8 μM
[12] = PA O750 (efflux-deficient), compound at 8 μM

N=C(N)NC[C@H]1O[C@H](O[C@H]2[C@H](OCCCCCCCCCCCCN3CCN(c4cc5c(cc4F)c(=O)c(C(=O)O)cn5C4CC4)CC3)[C@@H](O[C@H]3O[C@H](CO)[C@@H](O)[C@H](NC(=N)N)[C@H]3O)[C@H](NC(=N)N)C[C@@H]2NC(=N)N)[C@H](NC(=N)N)C[C@@H]1O [Compound 27, Guanidinylated Tobramycin-Ciprofloxacin Conjugate]
MIC of Aztreonam + compound [1, 8]: 0.5 µg/mL | MIC of Ceftazidime + compound [1, 8]: 0.25 µg/mL | MIC of Imipenem + compound [1, 8]: 1 µg/mL | MIC of Piperacillin + compound [1, 8]: 8 µg/mL | MIC of ATM in the presence of compound ([1]; PA 259-96918, compound at 8 μM): 32 µg/mL | MIC of CAZ in the presence of compound ([1]; PA 259-96918, compound at 8 μM): 512 µg/mL | MIC of IPM in the presence of compound ([1]; PA 259-96918, compound at 8 μM): 64 µg/mL | MIC of ATM in the presence of compound ([1]; PA 260-97103, compound at 8 μM): 8 µg/mL | MIC of CAZ in the presence of compound ([1]; PA 260-97103, compound at 8 μM): 16 µg/mL | MIC of IPM in the presence of compound ([1]; PA 260-97103, compound at 8 μM): 8 µg/mL | MIC of ATM in the presence of compound [1, 9]: 32 µg/mL | MIC of CAZ in the presence of compound [1, 9]: 16 µg/mL | MIC of IPM in the presence of compound [1, 9]: 16 µg/mL | MIC of ATM in the presence of compound [1, 10]: 32 µg/mL | MIC of CAZ in the presence of compound [1, 10]: 128 µg/mL | MIC of IPM in the presence of compound [1, 10]: 16 µg/mL | MIC of ATM in the presence of compound ([1]; PA 86052, compound at 8 μM): 32 µg/mL | MIC of CAZ in the presence of compound ([1]; PA 86052, compound at 8 μM): 32 µg/mL | MIC of IPM in the presence of compound ([1]; PA 86052, compound at 8 μM): 16 µg/mL | MIC of ATM in the presence of compound ([1]; PA 88949, compound at 8 μM): 32 µg/mL | MIC of CAZ in the presence of compound ([1]; PA 88949, compound at 8 μM): 32 µg/mL | MIC of IPM in the presence of compound ([1]; PA 88949, compound at 8 μM): 64 µg/mL | MIC of ATM in the presence of compound ([1]; PA 91433, compound at 8 μM): 16 µg/mL | MIC of CAZ in the presence of compound ([1]; PA 91433, compound at 8 μM): 4 µg/mL | MIC of IPM in the presence of compound ([1]; PA 91433, compound at 8 μM): 8 µg/mL | MIC of ATM in the presence of compound ([1]; PA 100036, compound at 8 μM): 16 µg/mL | MIC of CAZ in the presence of compound ([1]; PA 100036, compound at 8 μM): 6 µg/mL | MIC of IPM in the presence of compound ([1]; PA 100036, compound at 8 μM): 4 µg/mL | MIC of ATM in the presence of compound ([1]; PA 101243, compound at 8 μM): 4 µg/mL | MIC of CAZ in the presence of compound ([1]; PA 101243, compound at 8 μM): 16 µg/mL | MIC of IPM in the presence of compound ([1]; PA 101243, compound at 8 μM): 4 µg/mL | MIC of ATM in the presence of compound ([1]; PA 101885, compound at 8 μM): 4 µg/mL | MIC of CAZ in the presence of compound ([1]; PA 101885, compound at 8 μM): 2 µg/mL | MIC of IPM in the presence of compound ([1]; PA 101885, compound at 8 μM): 2 µg/mL | MIC of ATM in the presence of compound ([1]; PA 107092, compound at 8 μM): 32 µg/mL | MIC of CAZ in the presence of compound ([1]; PA 107092, compound at 8 μM): 32 µg/mL | MIC of IPM in the presence of compound ([1]; PA 107092, compound at 8 μM): 32 µg/mL | MIC of ATM in the presence of compound ([1]; PA 108590, compound at 8 μM): 2 µg/mL | MIC of CAZ in the presence of compound ([1]; PA 108590, compound at 8 μM): 2 µg/mL | MIC of IPM in the presence of compound ([1]; PA 108590, compound at 8 μM): 4 µg/mL | MIC of ATM in the presence of compound ([1]; PA 109084, compound at 8 μM): 32 µg/mL | MIC of CAZ in the presence of compound ([1]; PA 109084, compound at 8 μM): 32 µg/mL | MIC of IPM in the presence of compound ([1]; PA 109084, compound at 8 μM): 16 µg/mL | MIC of ATM in the presence of compound ([1]; PA 114228, compound at 8 μM): 8 µg/mL | MIC of CAZ in the presence of compound ([1]; PA 114228, compound at 8 μM): 2 µg/mL | MIC of IPM in the presence of compound ([1]; PA 114228, compound at 8 μM): 1 µg/mL | MIC of ATM in the presence of compound [1, 11]: 0.06 µg/mL | MIC of CAZ in the presence of compound [1, 11]: 0.25 µg/mL | MIC of IPM in the presence of compound [1, 11]: 2 µg/mL | MIC of ATM in the presence of compound [1, 12]: 0.06 µg/mL | MIC of CAZ in the presence of compound [1, 12]: 0.25 µg/mL | MIC of IPM in the presence of compound [1, 12]: 1 µg/mL | MIC of ATM in the presence of compound ([1]; PAO1, compound at 8 μM): 0.5 µg/mL | MIC of CAZ in the presence of compound ([1]; PAO1, compound at 8 μM): 0.25 µg/mL | MIC of IPM in the presence of compound ([1]; PAO1, compound at 8 μM): 1 µg/mL | intrinsic antimicrobial activity [2]: some modest residual activity | MIC ([3]; PA0750 (efflux-deficient)): 2 µg/mL (≈ 1.7 µM) | MIC ([3]; PAO1 (wild-type)): 32 µg/mL (≈ 27.2 µM) | MIC ([3]; PAO200 (second column so headed)): 16 µg/mL (≈ 13.6 µM)

polymyxin B nonapeptide [PMBN, reference compound]
MIC of Novobiocin + adjuvant (7.1 μM) ([1]; PA 91433): 4 µg/mL | MIC of Novobiocin + adjuvant (7.1 μM) ([1]; PA 101243): 8 µg/mL | MIC of Novobiocin + adjuvant (7.1 μM) ([1]; PA 114228): 128 µg/mL | MIC of Novobiocin + adjuvant (7.1 μM) ([1]; PAO1): 4 µg/mL | MIC of Novobiocin + adjuvant (7.1 μM) [4]: 64 µg/mL | MIC of Novobiocin + adjuvant (7.1 μM) [5]: 512 µg/mL | MIC of Novobiocin + adjuvant (7.1 μM) ([6]; E. coli 94393): 4 µg/mL | MIC of Novobiocin + adjuvant (7.1 μM) ([6]; E. coli 94474): 32 µg/mL | MIC of Novobiocin + adjuvant (7.1 μM) ([7]; AB 92247, PMBN or 1 at 7.1 μM): 1 µg/mL | potentiation of novobiocin ([7]; colistin-resistant mutant B of A. baumannii ATCC 17978): did not potentiate
